Source: patent publication US20230218710A1, “METHOD OF TREATING CORONAVIRUS INFECTIONS” (priority 2020, published 2023)
Marks after values point to notes of the source that are not given here.

How the values were obtained:
[1] = tested on: LPS-induced acute lung injury mouse model; assay: LPS-induced acute lung injury model in mouse (Example 6); format: in vivo, mice; conditions: histopathology, 24 h after LPS, 5 mg/kg i.p.
Description: The effect of the peptides of the current invention on acute lung injury can be assessed in an LPS-induced acute lung injury mouse model by monitoring outcomes such as lung weight, fluid accumulation, cytokine secretion in blood or bronchoalveolar lavage fluid (BALF), neutrophil infiltration into lung tissues, and assessment of acute lung injury score by histopathology. Acute lung injury was induced in male C57BL/6 mice (6 to 8 weeks old) by intratracheal administration of 40 μL lipopolysaccharide (LPS) (Sigma Aldrich, St. Louis, Mo.) in PBS at 5 mg/kg. Control animals received intratracheal PBS alone. […] Treatments were administered 1 h prior to LPS for animals designated for sacrifice at 4 h after LPS, or at both 1 h prior to and 6 h after LPS for animals designated for sacrifice at 24 h after LPS. At 4 or 24 hours post LPS administration, tissues were harvested. Lungs were weighed, flushed with Hanks Buffer to provide bronchoalveolar lavage fluid (BALF). Lungs were fixed in 10% neutral buffered formalin (NBF) for histopathology. Tissue slides were stained with hematoxylin and eosin (H&E) and evaluated and scored with light microscopy of 5 representative microscopic fields (100× magnification) scoring on a 0-5 scale using standard methods (Matute-Bello G et al 2011. An Official American Thoracic Society Workshop Report: Features and Measurements of Experimental Acute Lung Injury in Animals. Am J Respir Cell Mol Biol 44:725-38). The average score for five fields was calculated for each animal. Levels of pro-inflammatory cytokines in BALF were determined using a meso scale discovery (MSD) system. Data for test peptides were compared to the vehicle control group. Lung weights were normalized to body weight.

[2] = tested on: LPS-induced acute lung injury mouse model; assay: LPS-induced acute lung injury model in mouse (Example 7); format: in vivo, mice; conditions: 4 h after LPS, 5 mg/kg i.p.
Description: The effect of the peptides of the current invention on acute lung injury can be assessed in an LPS-induced acute lung injury mouse model by monitoring outcomes such as lung weight, fluid accumulation, cytokine secretion in blood or bronchoalveolar lavage fluid (BALF). Acute lung injury was induced in male C57BL/6 mice (6 to 8 weeks old) by intratracheal administration of 40 μL lipopolysaccharide (LPS) (Sigma Aldrich, St. Louis, Mo.) in PBS at 5 mg/kg. Control animals received intratracheal PBS alone. Animals (n=8 per treatment group) induced with LPS received intraperitoneal treatment with: PBS (vehicle control) or test peptides at 5 mg/kg in water. Treatments were administered 1 h prior to LPS. At 4 h post LPS administration, tissues were harvested. Lungs were weighed, flushed with Hanks Buffer to provide bronchoalveolar lavage fluid (BALF). Data for test peptides were compared to the vehicle control group. Table 11 compares the lung weights following LPS induction and treatment with PBS (vehicle control) or peptides. Table 12 compares the levels of pro-inflammatory cytokines in BALF following LPS induction and treatment with PBS (vehicle control) or peptides.

Apelin Receptor (APJ) = target: T1, Apelin Receptor (APJ) (Homo sapiens, UniProt P35414); assay: Phosphorylation of ERK1/2 in cultured cells overexpressing APJ; format: cell-based; conditions: 5 min, 100 nM Pyr-Apelin-13 = positive control, acetate salts
T1 construct: host or cells: CHO-K1 AGTRL1 Gi cells
T1 sequence (P35414 1-380): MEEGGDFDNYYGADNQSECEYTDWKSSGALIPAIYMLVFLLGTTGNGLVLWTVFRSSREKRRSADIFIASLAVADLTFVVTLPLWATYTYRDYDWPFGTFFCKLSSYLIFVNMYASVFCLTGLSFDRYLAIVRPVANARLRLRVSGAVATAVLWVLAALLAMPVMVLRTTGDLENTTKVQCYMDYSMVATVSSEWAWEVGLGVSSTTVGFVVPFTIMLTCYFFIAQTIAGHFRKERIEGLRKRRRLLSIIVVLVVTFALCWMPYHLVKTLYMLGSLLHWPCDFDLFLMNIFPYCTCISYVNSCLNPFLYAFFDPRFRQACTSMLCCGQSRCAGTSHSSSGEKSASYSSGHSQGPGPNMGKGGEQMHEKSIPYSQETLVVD
Description: The effect of the peptides of the current invention on activation of Apelin Receptor (APJ)-mediated signaling can be assessed using an assay to monitor phospho-ERK/phospho-p44/42 MAPK (p-ERK1/2) levels in cultured cells overexpressing Apelin Receptor (APJ) such as CHO-K1, derived from Chinese hamster ovary. Peptides were initially prepared as 100× stocks in H2O. […] Following a 5 min incubation the supernatant was removed and the cells were placed on ice and washed twice with cold HBSS. The HBSS was removed and the cells were immediately lysed in 300 μl/well of 1× lysis buffer (CST 10× Lysis Buffer; Cell Signaling Technology; Danvers, Mass.); lysis buffer was supplemented with 1 mM PMSF (Millipore-Sigma; Saint Louis, Mo.) and Halt Protease/Phosphatase Inhibitor Cocktail (Thermo-Fisher; Waltham, Mass.) prior to use. The samples were then placed on ice for 10 min, wells were scraped and lysates transferred to microfuge tubes. The samples were centrifuged at 12,500 rpm for 10 min at 4° C. and p-ERK1/2 expression in each sample was measured using Phospho-p44/42 MAPK (Thr202/Tyr204) Sandwich ELISA kit according to manufacturer's instructions (Cell Signaling Technology; Danvers, Mass.). Absorbance was measured using a Cytation 3 plate reader at […] (BioTek; Winooski, Vt.). […] Each data point represents the average of duplicate assays.

## (PEG12)KRRLLGLVFQSLCG(dA) (KRRLLGLVFQSLCGA; N-terminal PEG12; C-terminal D-alanine; (1)..(1) PEG12; (15)..(15) D-Ala) [SEQ ID NO: 37]
[1]; 0-5 scale
  Mean (SEM) Alveolar Neutrophil Infiltration Score: 1.50 (0.14)
  Mean (SEM) Interstitial Neutrophil Infiltration Score: 1.30 (0.11)
[1]
  Mean (SEM) Composite Lung Injury Score: 2.83 (0.23)
[2]
  Mean (SEM) Lung Weight: 0.259 (0.004)*** g
[2]; BALF
  Pro-inflammatory Cytokine Level IFNγ: 0.13 pg/mL
  Pro-inflammatory Cytokine Level IL-1β: 72.5 pg/mL
  Pro-inflammatory Cytokine Level IL-2: 0.60 pg/mL
  Pro-inflammatory Cytokine Level IL-4: 0.86 pg/mL
  Pro-inflammatory Cytokine Level IL-6: 3080 pg/mL
  Pro-inflammatory Cytokine Level IL-9: 4.74 pg/mL
  Pro-inflammatory Cytokine Level KC/GRO: 2660 pg/mL
  Pro-inflammatory Cytokine Level TNFα: 3850 pg/mL
Apelin Receptor (APJ); 0.4 μM peptide
  pERK1/2 (% of Positive Control): 9.9%
Apelin Receptor (APJ); 2.0 μM peptide
  pERK1/2 (% of Positive Control): 27.3%
Apelin Receptor (APJ); 10 μM peptide
  pERK1/2 (% of Positive Control): 54.2%
Apelin Receptor (APJ); 50 μM peptide
  pERK1/2 (% of Positive Control): 88.4%
